{"source": "paper PMC6528465", "about": "(ACS infectious diseases, 2018)", "key": {"Mtb H37Rv": {"test_system": "Mtb H37Rv", "assay_type": "cell-based, Mycobacterium tuberculosis", "settings": "no inhibitor"}, "J774A.1 (macrophage)": {"test_system": "J774A.1 (macrophage)", "assay": "Mammalian cytotoxicity J774A.1", "assay_type": "cell-based", "settings": "1% v/v in 0.5% DMSO"}, "A549 (lung)": {"test_system": "A549 (lung)", "assay": "Mammalian cytotoxicity A549", "assay_type": "cell-based", "settings": "1% v/v in 0.5% DMSO"}, "HEK-293 (kidney)": {"test_system": "HEK-293 (kidney)", "assay": "Mammalian cytotoxicity HEK-293", "assay_type": "cell-based", "settings": "1% v/v in 0.5% DMSO"}}}
{"compound": "NC[C@H]1O[C@H](O[C@H]2[C@H](O)[C@@H](O[C@H]3O[C@H](CO)[C@@H](O)[C@H](N)[C@H]3O)[C@H](N)C[C@@H]2N)[C@H](O)[C@@H](O)[C@@H]1O", "note": "[KAN, kanamycin]", "values": [{"measurement": "H37RV MICKAN", "setting": "Mtb H37Rv", "value": "<1.25", "unit": "µg/mL"}]}
{"compound": "Triton-X 100", "values": [{"measurement": "cell survival (positive control)", "setting": "J774A.1 (macrophage)", "value": "< 5", "unit": "%"}, {"measurement": "cell survival (positive control)", "setting": "A549 (lung)", "value": "< 5", "unit": "%"}, {"measurement": "cell survival (positive control)", "setting": "HEK-293 (kidney)", "value": "< 5", "unit": "%"}]}
